The values below come from patent publication US20140011781A1, “METHOD FOR TREATING OR […] USING TESTIS EXTRACT AS ACTIVE INGREDIENT” (Industry-Academic Cooperation Foundation, Yeungnam …, priority 2009, published 2014).

What all share (assay type): in vivo, CD-1 mouse
One series has as its system reproductive period. Put plainly: Analysis of reproductive period change by vaginal smearing. As to conditions: during 21 days of subcutaneous injection, female CD-1 mice; nandrolone 3 mg/kg BW; compared with sesame oil control. How it is done:
(§1) Next, the pig testis extracts M1 and M2 were dissolved with first solvent of 100% ethanol, and then sesame oil was added to prepare at a concentration of 1 g/ml. 100% was defined as 100-fold diluted one with the sesame oil, and then the sample was used by diluting to be a concentration of 0.1%, 1%, 10% or 50%. Each concentration (0.1%, 1%, 10%, 50% or 100%) of the pig testis extract was subcutaneously injected to CD-1 mouse of 6 to 8-week raised under physiological condition for 21 days (6 mice per each group).
As mentioned above, each concentration of the pig testis extract was subcutaneously injected to 6-health CD-1 female mice raised under physiological condition for 21 days. Vaginal smearing was performed to analyze reproductive period change during an injection. As a control group, the mice injected with only sesame oil and the mice injected with only 19-nortestosterone (3 mg/kg BW) were used to analyze the effects. At 21 days after treating, the mice were anesthetized with sodium pentobarbital and then their peripheral bloods were collected. And immediately, the mice were sacrificed by a luxation of the cervical vertebral, and a femur for obtaining bone marrow and liver tissue, ovary, and uterus for analyzing cytotoxicity were removed. Some of them were fixed for a histological analysis and some of them were stored at a deep-freezer of −80° C. […]

In series [1] the test system is CD34 hematopoietic stem cells in bone marrow. Description: Numerical change of CD34-marked hematopoietic stem cell using FACS. The conditions noted are these: 0.1% extract or nandrolone injected to mice, femur bone marrow. On the procedure:
as §1
In the Experimental Example, CD34, which is a marker for hematopoietic stem cell, was used in order to confirm whether a pig testis extract stimulates proliferation of hematopoietic stem cells, or not. Each of 0.1% pig testis extracts M1 and M2 was injected to the mice as the above Experimental Example; then the mice were scarified; their femurs were collected; and then bone marrows were extracted by using PBS solution.
Since then, after reacting with CD34 specific antibody, CD34 hematopoietic stem cells were counted for the analysis by using a fluorescent activated cell sorter.

In series [2] the test system is red blood cell in peripheral blood. Put plainly: Numerical change of RBC in peripheral blood. As to conditions: 0.1% extract or nandrolone injected to mice. On the procedure: as §1
Peripheral bloods were obtained after treating each of 0.1% pig testis extracts M1 and M2 under the same condition as the above Experimental Example. Since then, the number of RBC (Red Blood Cell) was counted by using an analyzer.

Structures are written as SMILES.

As to `C[C@]12CC[C@H]3[C@@H](CCC4=CC(=O)CC[C@@H]43)[C@@H]1CC[C@@H]2O` [nandrolone], in the series on reproductive period, the “progress of reproductive period (vaginal smearing)” value is listed as “gradually irregular”. The “number of CD34 hematopoietic stem cell in bone marrow” value in series [1] is recorded as “significantly increased”. Moreover, the “number of RBC in peripheral blood compared with control group” value in series [2] is recorded as “significantly increased”.
